Assay results published in US7060671B1, “Peptides containing N-substituted D-amino acids for preventing β-strand association” (Senexis Limited, priority 1999, dated 2006).
“And” between values parts separate entries of the source, which are not always exact repeats. Identical values can stand only once. “Also recorded” adds a separate entry of the source. Square brackets hold non-standard residues; d marks the D form. Peptide text beside a SMILES is read from it. dNMeL = CN[C@H](CC(C)C)C(=O)O

How the values were obtained:
[1] = solubility in aqueous solutions; assay type: physicochemical; details: over a wide range of pH values
From the text: The two positively charged arginine side chains assist the peptide to penetrate cell membranes and the blood-brain barrier by making electrostatic interactions with the negatively charged phosphate head groups of their constituent phospholipid molecules, resulting in the formation of inverted micelles which carry the peptide molecules across these membranes.

[2] = target: T1, synthetic peptide fragment corresponding to residues 11 to 25 of the Alzheimer's Aβ peptide (Homo sapiens, UniProt P05067); test: thioflavin T fluorescence assay of Aβ peptide fragment aggregation into amyloid fibrils; assay type: biochemical
T1 construct: residues 11 to 25 of the Alzheimer's Aβ peptide
Protocol: Peptide X (SEQ ID NO: 2) was dissolved in water to a concentration of 10 mM (about 10 mg/ml). […]

[3] = target: T2, Alzheimer's Aβ peptide fragment (Homo sapiens, UniProt P05067); test: electron microscopy of Aβ peptide fragment aggregation; assay type: biochemical; details: 500 mM (so in the source) Peptide X, FIGS. 6 and 7
T2 construct: residues 11 to 25 of the Alzheimer's Aβ peptide
Protocol: Peptide X (SEQ ID NO: 2) was dissolved in water to a concentration of 10 mM (about 10 mg/ml). Alzheimer's Aβ peptide fragment, at a concentration of 50/M (about 0.1 mg/ml) in 50 mM sodium acetate buffer (pH 5.0), was incubated at 25° C. in the absence or presence of Peptide X (SEQ ID NO: 2) at concentrations ranging from 100 μM to 1 mM; the aggregation of the Aβ peptide fragment into insoluble β-fibres in the solutions was determined quantitatively after 20 minutes by measuring the fluorescence of 1%M added thioflavin T at 482 nm using an excitation wavelength of 440 nm. […] aliquots of these solutions were then analysed by electron microscopy to confirm that Peptide X (SEQ ID NO: 2) had inhibited and/or reversed the aggregation of the Alzheimer's Aβ peptide fragment into insoluble β-fibres.

solubility [1]: ≥ 10000 µM and ≥ 10000 µg/mL
inhibition at 200 µM ([2]; 200 μM Peptide X, Aβ fragment in 50 mM sodium acetate pH 5.0, 25° C., 20 minutes, FIG. 5): > 60%
reduction in Alzheimer's Aβ peptide aggregation ([2]; Peptide X concentration of 100 mM (so in the source), FIG. 5): 50%
SMILES: CC(=O)N[C@H](CC(C)C)C(=O)N(C)[C@H](CC(C)C)C(=O)N[C@H](CC(C)C)C(=O)N(C)[C@H](CC(C)C)C(=O)N[C@H](CCCNC(=N)N)C(=O)N[C@H](CCCNC(=N)N)C(N)=O [Peptide X, Nα-acetyl-(D-leucine)-(Nα-methyl-D-leucine)-(D-leucine)-(Nα-methyl-D-leucine)-(D-arginine)-(D-arginine)-NH2] (Ac-[dL][dNMeL][dL][dNMeL][dR][dR]-NH2)
disaggregation of preformed amyloid fibrils ([2]; Peptide X added to the Aβ peptide fragment after incubation): able to disaggregate preformed amyloid fibrils
inhibition of aggregation of Aβ peptide fragment into amyloid fibrils by electron microscopy [3]: almost completely inhibited aggregation; also recorded: substantial elimination of aggregation
